Source: patent US20230159620A1, “COMPOSITIONS AND METHODS OF TREATMENT FOR VASCULAR DISEASES AND THROMBOSIS” (Washington University, priority 2021, published 2023)

Tests used:
HUVECs = assay: HUVEC adhesion assay; format: cell-based, human; details: wells coated with increasing concentrations, 10 minutes
Experimental: Subsequently, wells were blocked with 100 mg/mL BSA and washed with DPBS. HUVECs were collected and resuspended in basal media. 5,000 cells were added to each well. Cells were centrifuged and incubated at 37° C. for 10 minutes. The plate was gently centrifuged upside down to remove non-adhered cells. Adhered cells were fixed with 4% paraformaldehyde, stained with 4′,6-diamidino-2-phenylindole (DAPI), and counted by automated microscopy as done previously.

Pearl 1 = biological target: T1, Pearl 1 (Homo sapiens, UniProt Q5VY43); assay: Pearl 1 immunoprecipitation and pTyrosine immunoblot, platelets; format: cell-based; details: 15 minutes exposure, vs BSA
T1 construct: endogenous in cells; host or cells: freshly isolated human platelets
T1 sequence (Q5VY43 21-1037): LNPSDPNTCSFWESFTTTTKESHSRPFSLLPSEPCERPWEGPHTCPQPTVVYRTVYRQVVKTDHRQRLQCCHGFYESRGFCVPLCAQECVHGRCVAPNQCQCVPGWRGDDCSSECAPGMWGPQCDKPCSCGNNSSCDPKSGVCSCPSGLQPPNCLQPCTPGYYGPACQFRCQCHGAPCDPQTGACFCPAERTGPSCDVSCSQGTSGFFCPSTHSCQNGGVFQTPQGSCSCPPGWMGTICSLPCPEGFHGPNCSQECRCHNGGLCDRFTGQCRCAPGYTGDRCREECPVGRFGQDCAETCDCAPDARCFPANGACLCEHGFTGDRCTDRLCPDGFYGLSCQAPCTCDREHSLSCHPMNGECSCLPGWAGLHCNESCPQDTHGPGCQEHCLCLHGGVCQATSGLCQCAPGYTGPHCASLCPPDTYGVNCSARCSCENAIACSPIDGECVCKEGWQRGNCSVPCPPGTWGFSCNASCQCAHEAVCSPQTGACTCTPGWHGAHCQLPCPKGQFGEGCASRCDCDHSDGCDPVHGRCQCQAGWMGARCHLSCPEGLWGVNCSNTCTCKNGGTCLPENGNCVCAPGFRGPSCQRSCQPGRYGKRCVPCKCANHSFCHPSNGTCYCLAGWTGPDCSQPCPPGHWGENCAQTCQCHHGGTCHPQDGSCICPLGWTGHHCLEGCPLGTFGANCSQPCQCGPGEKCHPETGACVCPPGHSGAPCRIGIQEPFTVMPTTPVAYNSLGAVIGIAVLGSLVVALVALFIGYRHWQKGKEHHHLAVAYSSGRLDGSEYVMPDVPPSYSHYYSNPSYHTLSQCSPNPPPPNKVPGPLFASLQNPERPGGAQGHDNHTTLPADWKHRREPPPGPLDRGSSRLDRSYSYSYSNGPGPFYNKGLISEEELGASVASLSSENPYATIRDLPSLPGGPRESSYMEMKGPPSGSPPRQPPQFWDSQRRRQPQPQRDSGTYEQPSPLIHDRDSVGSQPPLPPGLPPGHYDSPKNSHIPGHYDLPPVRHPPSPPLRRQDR
Experimental: Subsequently, 204, of BSA-blocked Invitrogen Protein A Dynabeads slurry was added, followed by rotation for 45 minutes. The beads were separated using magnetism and washed with RIPA buffer 4-5 times, then resuspended with reducing LDS sample buffer and analyzed by immunoblot assay. Bands for p-tyrosine and Pearl 1 were detected at ˜140 kDa.
Prior to performing signaling assays, cells were trypsinized, centrifuged, suspended in basal media, and counted using an automated hemocytometer. Cells were further diluted in basal media to an assay-dependent concentration. Cells were then incubated with gentle agitation for 60 minutes to prevent cell attachment and reduce basal signaling. PP1, Dynasore, MK-2206, and Rapamycin were diluted in DMSO and used in assay concentrations of 10 μM, 100 μM, 10 μM, and respectively, for the final 20-30 minutes of incubation in basal media. An equal volume of DMSO was used as the negative control condition. […] 1 μg Pearl 1 polyclonal antibody was added as a specific positive control. 20% growth media or 2% fetal bovine serum, labeled “Serum” in figures, was added as a non-specific positive control. The cells were centrifuged at 300G for 3 minutes with the exception of platelets, which were centrifuged at 500G for 5 minutes. […] Protein content was determined using a bicinchoninic acid assay with BSA standards (#23225, Pierce BCA Protein Assay Kit). […]

platelets = test system: platelets
Experimental: Complete blood counts (CBC) and washed platelet counts were determined using a hematology analyzer Element HT5 (Heska, Loveland). […] For flow cytometry, diluted whole blood or isolated platelets were pre-incubated with their respective fluorescent antibodies for 15 minutes and fixed. For murine whole blood: CD41-VioBlue, CD61-PE (Mitlenyi Biotec, Bergisch Gladbach, Germany), CD42b-DL649, GPVI-FITC (Emfret, Eibelstadt, Germany) and for human whole blood and isolated platelets: CD41-FITC, CD61-APC, CD42b-PE (Biolegend, San Diego), GPVI-BV421 617 (BD, Franklin Lakes). Platelet surface receptor levels were quantified by flow cytometry on a 618 CytoFlex analyzer.
Samples were immediately fixed and run using a CytoFlex analyzer (Beckman Coulter, Pasadena) and analysis was performed with Kaluza software (Beckman Coulter, Pasadena).

VSMCs = assay: VSMC adhesion assay; format: cell-based, mouse; details: immobilized protein
From the text: Plates were ultraviolet (UV) sterilized before adding cells. […] Efficient Itgα9 knockdown was confirmed by qPCR.

SVEP1: recombinant murine SVEP1 extracellular matrix protein with Myc and poly-histidine tag, expressed in 293F cells
adherence of HUVECs to coated protein (HUVECs): dose-dependent manner up to 20 pg/mL
phospho-tyrosine signal of Pearl 1 (140 kDa) (Pearl 1): robust phospho-tyrosine signal
platelet receptor density (platelets; freshly isolated human platelets, soluble SVEP1): lower levels of receptor CD42b and CD61
integrin aIIbβ3 activation (active CD41/61) (platelets; isolated human platelets, basal and with ADP, TRAP6): increased
P-selectin expression (platelets; isolated human platelets, with ADP, TRAP6): increased
adhesion of VSMCs (VSMCs): adhere to SVEP1 in a dose-dependent manner
